Data reported in ChEMBL document CHEMBL2016532, “Novel potent dual inhibitors of CK2 and Pim kinases with antiproliferative activity against cancer cells” (Bioorg Med Chem Lett, 2012).

Key:
[1] = target: Serine/threonine-protein kinase pim-2 (Homo sapiens, UniProt Q9P1W9); assay: Inhibition of human recombinant Pim2 using RSRHSSYPAGT as substrate and 5 uM ATP by radiometric assay
[2] = target: Casein kinase II alpha/beta (Homo sapiens, UniProt P68400); format: protein-complex assay
[3] = target: Serine/threonine-protein kinase pim-1 (Homo sapiens, UniProt P11309); assay: Inhibition of human recombinant Pim1 using RSRHSSYPAGT as substrate and 30 uM ATP by radiometric assay
K562 = assay: Antiproliferative activity against human K562 cells after 48 hrs by alamar blue assay; format: functional, cell-based; details: K562, 48 h
BXPC-3 = assay: Antiproliferative activity against human BxPC3 cells after 48 hrs by alamar blue assay; format: functional, cell-based; details: BXPC-3, 48 h
[4] = Antiproliferative activity against human SUM149PT cells after 48 hrs by alamar blue assay; format: functional, cell-based
[5] = system: MDA-MB-453 (Homo sapiens); assay: Antiproliferative activity against human MDA-MB-453 cells after 48 hrs by alamar blue assay; details: MDA-MB-453, 48 h
MV4-11 = assay: Antiproliferative activity against human MV411 cells after 48 hrs by alamar blue assay; format: functional, cell-based; details: MV4-11, 48 h
[6] = target: T1, Receptor-type tyrosine-protein kinase FLT3 (Homo sapiens, UniProt P36888); assay: Inhibition of Flt3
T1 sequence (P36888 whole entry): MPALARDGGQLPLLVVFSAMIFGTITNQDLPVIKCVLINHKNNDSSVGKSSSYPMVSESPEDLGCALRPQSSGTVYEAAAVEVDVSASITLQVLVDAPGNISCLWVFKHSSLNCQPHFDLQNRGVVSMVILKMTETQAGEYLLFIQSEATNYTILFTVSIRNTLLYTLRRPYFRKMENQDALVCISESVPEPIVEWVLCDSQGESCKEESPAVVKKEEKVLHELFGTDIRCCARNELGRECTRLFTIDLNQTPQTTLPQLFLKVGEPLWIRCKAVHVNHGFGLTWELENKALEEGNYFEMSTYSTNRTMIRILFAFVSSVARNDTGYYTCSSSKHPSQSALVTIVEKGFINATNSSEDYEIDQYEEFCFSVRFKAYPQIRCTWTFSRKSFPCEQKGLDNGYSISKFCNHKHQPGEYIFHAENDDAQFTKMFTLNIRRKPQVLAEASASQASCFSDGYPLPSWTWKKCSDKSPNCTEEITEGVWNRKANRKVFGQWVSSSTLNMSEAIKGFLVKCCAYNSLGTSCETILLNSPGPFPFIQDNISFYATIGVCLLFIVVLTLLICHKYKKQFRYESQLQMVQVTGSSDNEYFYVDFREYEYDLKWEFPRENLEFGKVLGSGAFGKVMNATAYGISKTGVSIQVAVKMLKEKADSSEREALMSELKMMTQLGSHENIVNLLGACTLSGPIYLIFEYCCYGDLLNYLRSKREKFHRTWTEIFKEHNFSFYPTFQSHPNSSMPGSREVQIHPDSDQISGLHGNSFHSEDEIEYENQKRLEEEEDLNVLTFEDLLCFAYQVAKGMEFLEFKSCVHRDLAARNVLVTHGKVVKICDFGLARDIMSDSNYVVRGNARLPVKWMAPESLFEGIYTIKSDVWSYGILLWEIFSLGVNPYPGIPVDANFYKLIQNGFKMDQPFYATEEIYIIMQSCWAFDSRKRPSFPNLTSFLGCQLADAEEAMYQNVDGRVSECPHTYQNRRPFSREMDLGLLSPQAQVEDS

Chain of Serine/threonine-protein kinase pim-2 (Q9P1W9 whole entry): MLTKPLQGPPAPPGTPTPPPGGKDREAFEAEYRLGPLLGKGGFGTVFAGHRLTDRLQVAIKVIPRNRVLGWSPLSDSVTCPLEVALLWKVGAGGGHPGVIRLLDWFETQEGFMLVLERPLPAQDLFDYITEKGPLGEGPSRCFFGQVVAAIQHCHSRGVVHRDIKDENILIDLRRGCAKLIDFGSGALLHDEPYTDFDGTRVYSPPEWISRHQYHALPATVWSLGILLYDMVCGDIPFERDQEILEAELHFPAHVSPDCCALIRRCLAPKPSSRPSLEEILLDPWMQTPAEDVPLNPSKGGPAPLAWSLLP
Chain of Casein kinase II alpha/beta (P67870 whole entry): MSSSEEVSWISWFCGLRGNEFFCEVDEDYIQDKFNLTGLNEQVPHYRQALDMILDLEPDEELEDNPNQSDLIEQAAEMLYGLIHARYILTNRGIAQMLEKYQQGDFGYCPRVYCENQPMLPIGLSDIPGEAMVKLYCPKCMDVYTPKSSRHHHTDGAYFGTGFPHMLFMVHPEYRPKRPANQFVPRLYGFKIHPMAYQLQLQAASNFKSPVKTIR
Chain of Casein kinase II alpha/beta (P68400 whole entry): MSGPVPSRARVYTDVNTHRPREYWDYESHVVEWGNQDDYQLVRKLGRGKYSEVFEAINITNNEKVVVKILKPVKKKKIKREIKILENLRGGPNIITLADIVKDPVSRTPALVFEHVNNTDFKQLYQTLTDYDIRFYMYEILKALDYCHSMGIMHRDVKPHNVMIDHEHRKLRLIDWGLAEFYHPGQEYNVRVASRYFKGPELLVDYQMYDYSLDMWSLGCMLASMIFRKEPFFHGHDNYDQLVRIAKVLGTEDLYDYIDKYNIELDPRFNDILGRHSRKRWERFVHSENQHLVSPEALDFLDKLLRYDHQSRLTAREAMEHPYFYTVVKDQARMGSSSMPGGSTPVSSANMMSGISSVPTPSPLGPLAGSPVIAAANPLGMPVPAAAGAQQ
Chain of Serine/threonine-protein kinase pim-1 (P11309 whole entry): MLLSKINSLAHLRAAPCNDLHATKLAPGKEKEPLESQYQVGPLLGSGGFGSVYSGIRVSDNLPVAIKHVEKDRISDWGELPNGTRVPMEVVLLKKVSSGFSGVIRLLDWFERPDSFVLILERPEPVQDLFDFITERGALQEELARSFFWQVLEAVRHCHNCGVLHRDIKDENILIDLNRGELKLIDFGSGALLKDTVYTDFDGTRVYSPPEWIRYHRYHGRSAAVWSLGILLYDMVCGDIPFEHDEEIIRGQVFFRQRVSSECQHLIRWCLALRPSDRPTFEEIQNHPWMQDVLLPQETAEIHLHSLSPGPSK

## FC(F)(F)Oc1ccc(Nc2nc3c(-c4nnc[nH]4)cccc3c3sccc23)c(Cl)c1
[1]
  IC50: 76 nM
[2]
  IC50: 75 nM
[3]
  IC50: 64 nM

## c1cncc(Nc2nc3c(-c4nnc[nH]4)cccc3c3sccc23)c1
[1]
  IC50: 22 nM
[2]
  IC50: 76 nM
[3]
  IC50: 17 nM

## c1ccc(CNc2nc3c(-c4nnc[nH]4)cccc3c3sccc23)cc1
[1]
  IC50: 52 nM
[2]
  IC50: 48 nM
[3]
  IC50: 4 nM

## Clc1ccccc1Nc1nc2c(-c3nnc[nH]3)cccc2c2scnc12
[1]
  IC50: 9 nM
[2]
  IC50: 39 nM
K562
  EC50: > 10000 nM
BXPC-3
  EC50: 2800 nM
[4]
  EC50: 12600 nM
[5]
  EC50: 2000 nM
MV4-11
  EC50: 4700 nM
[3]
  IC50: 8 nM

## c1ccc(Nc2nc3c(-c4nnc[nH]4)cccc3c3ccsc23)cc1
[1]
  IC50: 14 nM
[2]
  IC50: 30 nM
[3]
  IC50: 16 nM

## Fc1ccccc1Nc1nc2c(-c3nnc[nH]3)cccc2c2sccc12
[1]
  IC50: 2 nM
[2]
  IC50: 4 nM
K562
  EC50: 3600 nM
BXPC-3
  EC50: > 30000 nM
[4]
  EC50: 9500 nM
[5]
  EC50: 7100 nM
MV4-11
  EC50: 600 nM
[3]
  IC50: 2 nM

## Fc1cc(F)cc(Nc2nc3c(-c4nnc[nH]4)cccc3c3sccc23)c1
[1]
  IC50: 24 nM
[2]
  IC50: 151 nM
[3]
  IC50: 9 nM

## CN(C)CCOc1ccc(Nc2nc3c(-c4nnc[nH]4)cccc3c3sccc23)cc1
[1]
  IC50: 34 nM
[2]
  IC50: 136 nM
[3]
  IC50: 16 nM

## Clc1ccc(Nc2nc3c(-c4nnc[nH]4)cccc3c3sccc23)cc1
[1]
  IC50: 86 nM
[2]
  IC50: 33 nM
[3]
  IC50: 14 nM

## COc1cccc(Nc2nc3c(-c4nnc[nH]4)cccc3c3sccc23)c1Cl
[1]
  IC50: 21 nM
[2]
  IC50: 17 nM
[3]
  IC50: 5 nM

## Fc1ccc(Nc2nc3c(-c4nnc[nH]4)cccc3c3sccc23)c(F)c1
[1]
  IC50: 2 nM
[2]
  IC50: 11 nM
K562
  EC50: 4800 nM
BXPC-3
  EC50: > 30000 nM
[4]
  EC50: > 30000 nM
[5]
  EC50: 4600 nM
MV4-11
  EC50: 1700 nM
[3]
  IC50: 2 nM

## NC(=O)c1ccc(Nc2nc3c(-c4nnc[nH]4)cccc3c3sccc23)cc1
[1]
  IC50: 17 nM
[2]
  IC50: 139 nM
[3]
  IC50: 17 nM

## Oc1ccc(Nc2nc3c(-c4nnc[nH]4)cccc3c3sccc23)c(Cl)c1
[1]
  IC50: 4 nM
[2]
  IC50: 10 nM
[3]
  IC50: 14 nM

## COc1ccc(Nc2nc3c(-c4nnc[nH]4)cccc3c3sccc23)cc1
[1]
  IC50: 6 nM
[2]
  IC50: 5 nM
K562
  EC50: 7200 nM
BXPC-3
  EC50: 28000 nM
[4]
  EC50: 8200 nM
[5]
  EC50: 7400 nM
MV4-11
  EC50: 6500 nM
[3]
  IC50: 4 nM

## Cc1cc2c(Nc3ccccc3F)nc3c(-c4nnc[nH]4)cccc3c2s1
[1]
  IC50: 6 nM
[2]
  IC50: 26 nM
[3]
  IC50: 15 nM

## Clc1ccccc1Nc1nc2c(-c3nnc[nH]3)cccc2n2cccc12
[1]
  IC50: 41 nM
[2]
  IC50: 89 nM
[6]
  IC50: > 10000 nM
[3]
  IC50: 12 nM

## Clc1ccccc1Nc1nc2c(-c3nnc[nH]3)cccc2c2cscc12
[1]
  IC50: 8 nM
[2]
  IC50: 20 nM
K562
  EC50: > 10000 nM
BXPC-3
  EC50: 4500 nM
[4]
  EC50: 2600 nM
[5]
  EC50: 4900 nM
MV4-11
  EC50: 600 nM
[6]
  IC50: > 10000 nM
[3]
  IC50: 7 nM

## N#Cc1cccc(Nc2nc3c(-c4nnc[nH]4)cccc3c3sccc23)c1
[1]
  IC50: 12 nM
[2]
  IC50: 126 nM
[3]
  IC50: 10 nM

## Clc1cccc(Nc2nc3c(-c4nnc[nH]4)cccc3c3sccc23)c1
[1]
  IC50: 6 nM
[2]
  IC50: 15 nM
[3]
  IC50: 6 nM

## NC(=O)c1cccc2c1nc(Nc1ccccc1Cl)c1ccsc12
[1]
  IC50: 12 nM
[2]
  IC50: 22 nM
[3]
  IC50: 5 nM

## Fc1ccccc1Nc1nc2c(-c3nnc[nH]3)cccc2n2cncc12
[1]
  IC50: 43 nM
[2]
  IC50: 35 nM
K562
  EC50: 5400 nM
BXPC-3
  EC50: 15000 nM
[4]
  EC50: 5400 nM
[5]
  EC50: 3100 nM
MV4-11
  EC50: 100 nM
[3]
  IC50: 38 nM

## c1cc(-c2nnc[nH]2)c2nc(Nc3ccncc3)c3ccsc3c2c1
[1]
  IC50: 68 nM
[2]
  IC50: 216 nM
[3]
  IC50: 91 nM

## c1cc(-c2nnc[nH]2)c2nc(NC3CC3)c3ccsc3c2c1
[1]
  IC50: 25 nM
[2]
  IC50: 62 nM
[3]
  IC50: 15 nM

## Fc1ccc(Nc2nc3c(-c4nnc[nH]4)cccc3c3sccc23)cc1F
[1]
  IC50: 15 nM
[2]
  IC50: 77 nM
[3]
  IC50: 9 nM

## Fc1ccc(Nc2nc3c(-c4nnc[nH]4)cccc3c3sccc23)cc1
[1]
  IC50: 7 nM
[2]
  IC50: 7 nM
K562
  EC50: > 10000 nM
BXPC-3
  EC50: > 30000 nM
[4]
  EC50: > 30000 nM
[5]
  EC50: 6600 nM
MV4-11
  EC50: > 10000 nM
[3]
  IC50: 4 nM

## COc1cccc(Nc2nc3c(-c4nnc[nH]4)cccc3c3sccc23)c1
[1]
  IC50: 28 nM
[2]
  IC50: 11 nM
[3]
  IC50: 11 nM

## Clc1ccccc1Nc1nc2c(-c3nnc[nH]3)cccc2c2ccsc12
[1]
  IC50: 6 nM
[2]
  IC50: 21 nM
K562
  EC50: > 10000 nM
BXPC-3
  EC50: 16100 nM
[4]
  EC50: 2600 nM
[5]
  EC50: 1300 nM
MV4-11
  EC50: 3200 nM
[6]
  IC50: > 10000 nM
[3]
  IC50: 4 nM

## O=C(O)c1cccc2c1nc(Nc1ccccc1Cl)c1ccsc12
[1]
  IC50: 121 nM
[2]
  IC50: 139 nM
[3]
  IC50: 69 nM

## Clc1ccccc1Nc1nc2c(-c3nnc[nH]3)cccc2c2sccc12
[1]
  IC50: 2 nM
[2]
  IC50: 9 nM
K562
  EC50: 3600 nM
BXPC-3
  EC50: 11700 nM
[4]
  EC50: 4400 nM
[5]
  EC50: 2600 nM
MV4-11
  EC50: 500 nM
[6]
  IC50: > 10000 nM
[3]
  IC50: 3 nM

## Fc1ccc(Nc2nc3c(-c4nnc[nH]4)cccc3c3sccc23)c(Cl)c1
[1]
  IC50: 9 nM
[2]
  IC50: 52 nM
[3]
  IC50: 9 nM

## c1ccc(Nc2nc3c(-c4nnc[nH]4)cccc3n3cccc23)cc1
[1]
  IC50: 30 nM
[2]
  IC50: 101 nM
[3]
  IC50: 14 nM

## CNC(=O)c1cccc2c1nc(Nc1ccccc1Cl)c1ccsc12
[1]
  IC50: 28 nM
[2]
  IC50: 48 nM
[6]
  IC50: 5300 nM
[3]
  IC50: 5 nM

## Fc1cccc(Nc2nc3c(-c4nnc[nH]4)cccc3c3sccc23)c1
[1]
  IC50: 5 nM
[2]
  IC50: 7 nM
K562
  EC50: > 10000 nM
BXPC-3
  EC50: 9100 nM
[4]
  EC50: 8100 nM
[5]
  EC50: 2600 nM
MV4-11
  EC50: 4600 nM
[3]
  IC50: 3 nM

## COc1ccccc1Nc1nc2c(-c3nnc[nH]3)cccc2c2sccc12
[1]
  IC50: 49 nM
[2]
  IC50: 84 nM
[3]
  IC50: 7 nM

## c1ccc(Nc2nc3c(-c4nnc[nH]4)cccc3c3cscc23)cc1
[1]
  IC50: 17 nM
[2]
  IC50: 10 nM
[3]
  IC50: 27 nM

## C#Cc1cccc(Nc2nc3c(-c4nnc[nH]4)cccc3c3sccc23)c1
[1]
  IC50: 5 nM
[2]
  IC50: 2 nM
K562
  EC50: 6700 nM
BXPC-3
  EC50: 24600 nM
[4]
  EC50: 9600 nM
[5]
  EC50: 9300 nM
MV4-11
  EC50: 5400 nM
[3]
  IC50: 6 nM

## Fc1ccccc1Nc1nc2c(-c3nnc[nH]3)cccc2n2cccc12
[1]
  IC50: 20 nM
[2]
  IC50: 89 nM
K562
  EC50: 8200 nM
BXPC-3
  EC50: > 30000 nM
[4]
  EC50: 22800 nM
[5]
  EC50: 28400 nM
MV4-11
  EC50: 3700 nM
[3]
  IC50: 8 nM

## c1ccc(Nc2nc3c(-c4nnc[nH]4)cccc3c3sccc23)cc1
[1]
  IC50: 15 nM
[2]
  IC50: 10 nM
K562
  EC50: 6100 nM
BXPC-3
  EC50: > 30000 nM
[4]
  EC50: 7000 nM
[5]
  EC50: 7800 nM
MV4-11
  EC50: 2000 nM
[3]
  IC50: 4 nM

## c1cc(-c2nnc[nH]2)c2nc(N3CCOCC3)c3ccsc3c2c1
[1]
  IC50: 10 nM
[2]
  IC50: 128 nM
[3]
  IC50: 35 nM

## FC(F)(F)c1cccc(Nc2nc3c(-c4nnc[nH]4)cccc3c3sccc23)c1
[1]
  IC50: 52 nM
[2]
  IC50: 24 nM
[3]
  IC50: 16 nM
